From patent US20150250713A1, “Pharmaceutical Composition” (CIPLA LIMITED, priority 2012, published 2015) come the findings set out here.

The data set in a line: Moisture uptake of HFA propellants. Type of data set: physicochemical. The conditions noted are these: ratio versus HFA-227 (measured values).

On to `FCC(F)(F)F` [HFA-134 (a), 1,1,1,2-tetrafluoroethane], for which the “moisture uptake compared to HFA-227” value is listed as “six times higher”.
